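Five concentrations, 48 hours, 96-well plates. TGI marks complete inhibition of growth.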
How the values were obtained:
Test in all cases: DTP human tumour cell line panel, 48 h
A549 NSCLC = system: A549 NSCLC
ACHN renal = system: ACHN renal
BT-549 breast = system: BT-549 breast
CAKI-1 renal = system: CAKI-1 renal
EKVX NSCLC = system: EKVX NSCLC
NCI-H522 lung = system: NCI-H522 lung
SF-295 CNS = system: SF-295 CNS
SK-MEL-2 melanoma = system: SK-MEL-2 melanoma
SNB-19 CNS = system: SNB-19 CNS
UACC-257 melanoma = system: UACC-257 melanoma

SMILES | TGI (A549 NSCLC) | TGI (ACHN renal) | TGI (BT-549 breast) | TGI (CAKI-1 renal) | TGI (EKVX NSCLC) | TGI (NCI-H522 lung) | TGI (SF-295 CNS) | TGI (SK-MEL-2 melanoma) | TGI (SNB-19 CNS) | TGI (UACC-257 melanoma)
CC1CC[C@@]2(OC1)O[C@H]1C[C@H]3[C@@H]4CC[C@H]5C[C@@H](OC6OC(CO)C(OC7OC(CO)C(OC8OC(CO)C(O)C(OC9OC(C)C(OC%10OC(C)C(O)C(O)C%10O)C(O)C9O)C8OC8OCC(O)C(O)C8O)C(O)C7O)C(O)C6O)CC[C@]5(C)[C@H]4CC(=O)[C@]3(C)[C@H]1[C@@H]2C (stereo not given in full) | 51.3 µM | 30.9 µM | 37 µM | 29.3 µM | 40.4 µM | 42.4 µM | 39.3 µM | 30 µM | 39.4 µM | 32.3 µM
CCCC(CC)c1c(O)c(O)c(C(CC)CCC)c(C(CC)CCC)c1C(CC)CCC (stereo not given) | > 10 µM | > 10 µM | > 10 µM | > 10 µM | > 10 µM | > 10 µM | > 10 µM | > 10 µM | > 10 µM | > 10 µM
CCOC(=O)c1c2c(n(-c3ccc(OC)cc3)c1C)C(=O)C(=O)c1ccccc1-2 | 4.46 µM | 2.36 µM | 4.32 µM | 2.82 µM | 4.09 µM | > 20.4 µM | 3.17 µM | > 21.8 µM | 19 µM | 1.11 µM
COC(=O)/C=C\C(C#N)(C#N)N=Cc1ccc(C)s1 | 33.6 µM | 3.66 µM | 12.2 µM | 4.78 µM | 15.3 µM | 2.01 µM | 31.8 µM | 20.5 µM | 32.8 µM | 7.71 µM
COCN1CCN=c2c1c1c3c(c4ccccc4n23)CCC1 | > 100 µM | > 100 µM | > 100 µM | > 100 µM | > 100 µM | > 100 µM | > 100 µM | > 100 µM | > 100 µM | > 100 µM
C=CC(C)(C)N[C@@H](C(=O)N1CCC[C@H]1c1nc(-c2nc(C(=O)OCC=C(C)C)c(C)o2)c(C)o1)C(C)C | > 100 µM | 88.3 µM | 46.2 µM | > 100 µM | > 100 µM | 35.6 µM | 42.8 µM | 73.5 µM | 55 µM | 38.4 µM
C=C1C(=O)O[C@H]2C/C(C)=C/CC/C(C)=C/CC[C@@](C)(O)[C@@H](I)C[C@@H]12 | 24.8 µM | 21.5 µM | 6.62 µM | 22.4 µM | 20.8 µM | 14.4 µM | 32.8 µM | 25.8 µM | 30 µM | 25.5 µM
COc1ccc2c(c1)nc1n2C(N)=Nc2ccccc2S1 | > 100 µM | > 100 µM | > 100 µM | > 100 µM | > 100 µM | > 100 µM | > 100 µM | > 100 µM | > 100 µM | > 100 µM
CC(C)[C@H]1NC(=O)[C@H]2N=C(O[C@@H]2C)[C@@H]2CCCN2C(=O)[C@H](Cc2ccccc2)NC(=O)[C@@H]2CSC(=N2)[C@@H](Cc2ccccc2)NC(=O)[C@@H]2CSC1=N2 | > 100 µM | > 100 µM | > 100 µM | > 100 µM | > 100 µM | > 100 µM | > 100 µM | > 100 µM | > 100 µM | > 100 µM

— PubChem BioAssay (NCI)
